Source: paper PMC6381168, “Anoctamin-4 is a bona fide Ca^2+-dependent non-selective cation channel” (Scientific Reports, 2019)

Biological target: T1, Ano4 (Mus musculus, UniProt Q8C5H1)
T1 construct: full length, 955 residues, C-terminal Myc tag (pcDNA3), transiently expressed in HEK293 cells
T1 sequence (Q8C5H1 1-955): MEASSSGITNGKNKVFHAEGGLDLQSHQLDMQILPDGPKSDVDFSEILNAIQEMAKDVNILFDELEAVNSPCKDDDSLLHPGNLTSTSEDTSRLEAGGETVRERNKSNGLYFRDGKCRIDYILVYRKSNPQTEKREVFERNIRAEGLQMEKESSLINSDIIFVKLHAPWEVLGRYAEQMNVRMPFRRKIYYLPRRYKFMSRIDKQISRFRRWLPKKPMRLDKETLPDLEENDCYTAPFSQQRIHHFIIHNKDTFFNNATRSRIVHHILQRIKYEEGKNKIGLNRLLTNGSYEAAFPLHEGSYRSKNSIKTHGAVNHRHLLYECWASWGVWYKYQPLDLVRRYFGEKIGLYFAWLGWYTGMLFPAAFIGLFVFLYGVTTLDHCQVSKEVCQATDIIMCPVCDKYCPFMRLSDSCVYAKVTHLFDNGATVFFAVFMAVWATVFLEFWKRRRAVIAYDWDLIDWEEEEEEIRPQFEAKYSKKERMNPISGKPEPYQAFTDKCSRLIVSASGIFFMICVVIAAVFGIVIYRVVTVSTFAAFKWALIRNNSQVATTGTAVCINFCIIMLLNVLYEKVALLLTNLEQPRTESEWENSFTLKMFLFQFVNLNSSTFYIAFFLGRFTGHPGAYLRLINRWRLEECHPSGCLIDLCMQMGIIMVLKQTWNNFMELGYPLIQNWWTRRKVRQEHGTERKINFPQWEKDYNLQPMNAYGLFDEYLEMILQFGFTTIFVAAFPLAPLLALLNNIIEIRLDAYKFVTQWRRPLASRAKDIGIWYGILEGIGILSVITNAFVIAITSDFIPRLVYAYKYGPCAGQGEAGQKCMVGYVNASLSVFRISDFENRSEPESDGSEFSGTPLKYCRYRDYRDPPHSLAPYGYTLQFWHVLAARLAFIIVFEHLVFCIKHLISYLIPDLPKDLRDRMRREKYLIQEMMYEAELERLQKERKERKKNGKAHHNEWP
Assay: whole-cell patch clamp, block of ionomycin-activated current
Assay type: cell-based
Conditions: 100 uM niflumic acid; extracellular Ringer with 1 uM ionomycin, pH 7.2, room temperature; channel blocker

## O=C(O)c1cccnc1Nc1cccc(C(F)(F)F)c1 [niflumic acid]
  whole-cell patch clamp, block of ionomycin-activated current: The Ano4-dependent current was blocked by the application of the fenamate niflumic acid
